Test results taken from paper PMC9942120 (iScience, 2023).

Key:
ALDOA = target: T1, ALDOA (Homo sapiens, UniProt P04075); experiment: colorimetric aldolase activity kit; assay type: cell-based; conditions: covalent; […] AMG510 or vehicle, […] min
T1 sequence (P04075 2-364): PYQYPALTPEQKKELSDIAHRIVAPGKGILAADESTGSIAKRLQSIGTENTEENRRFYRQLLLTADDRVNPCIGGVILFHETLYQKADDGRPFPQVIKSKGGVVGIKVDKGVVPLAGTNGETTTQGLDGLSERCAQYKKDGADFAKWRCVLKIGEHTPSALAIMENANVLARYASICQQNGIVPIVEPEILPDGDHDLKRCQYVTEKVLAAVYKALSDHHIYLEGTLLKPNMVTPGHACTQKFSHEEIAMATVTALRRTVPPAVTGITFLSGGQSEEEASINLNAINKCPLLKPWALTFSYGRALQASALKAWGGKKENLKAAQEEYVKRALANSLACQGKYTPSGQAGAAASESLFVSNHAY

SPTLC2 = target: T2, SPTLC2 (Homo sapiens, UniProt O15270); experiment: direct LC-MS/MS profiling of modified tryptic peptides; assay type: cell-based; conditions: covalent at Cys99; H358 cells, […] AMG510, […] h (methods print […] h)
T2 sequence (O15270 1-562): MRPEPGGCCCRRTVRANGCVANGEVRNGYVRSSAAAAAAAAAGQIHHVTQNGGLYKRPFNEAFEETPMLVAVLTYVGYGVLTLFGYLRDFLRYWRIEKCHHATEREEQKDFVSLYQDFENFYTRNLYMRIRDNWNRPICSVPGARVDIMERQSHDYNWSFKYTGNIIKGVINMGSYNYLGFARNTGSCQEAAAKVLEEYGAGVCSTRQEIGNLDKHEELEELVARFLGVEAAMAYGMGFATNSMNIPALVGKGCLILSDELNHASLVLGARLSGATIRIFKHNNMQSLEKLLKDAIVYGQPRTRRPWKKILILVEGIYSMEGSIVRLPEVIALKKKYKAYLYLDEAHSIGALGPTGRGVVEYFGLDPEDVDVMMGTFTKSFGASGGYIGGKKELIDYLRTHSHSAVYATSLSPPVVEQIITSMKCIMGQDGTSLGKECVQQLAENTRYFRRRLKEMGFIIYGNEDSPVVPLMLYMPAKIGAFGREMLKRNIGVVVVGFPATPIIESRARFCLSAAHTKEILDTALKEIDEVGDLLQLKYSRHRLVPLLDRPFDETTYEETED

TK1 = target: T3, TK1 (Homo sapiens, UniProt P04183); experiment: as above; assay type: cell-based; conditions: covalent at Cys3; H358 cells, […] AMG510, […] h (methods print […] h)
T3 sequence (P04183 2-234): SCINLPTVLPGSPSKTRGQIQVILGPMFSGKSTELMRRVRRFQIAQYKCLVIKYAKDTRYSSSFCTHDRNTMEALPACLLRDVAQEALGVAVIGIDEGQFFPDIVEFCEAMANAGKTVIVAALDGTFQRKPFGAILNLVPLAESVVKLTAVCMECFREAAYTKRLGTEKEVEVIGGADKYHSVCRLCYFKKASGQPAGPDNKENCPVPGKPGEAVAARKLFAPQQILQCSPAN

RTN4 = target: T4, RTN4 (Homo sapiens, UniProt Q9NQC3); experiment: as above; assay type: cell-based; conditions: covalent at Cys1101; H358 cells, […] AMG510, […] h (methods print […] h)
T4 sequence (Q9NQC3 1-1192): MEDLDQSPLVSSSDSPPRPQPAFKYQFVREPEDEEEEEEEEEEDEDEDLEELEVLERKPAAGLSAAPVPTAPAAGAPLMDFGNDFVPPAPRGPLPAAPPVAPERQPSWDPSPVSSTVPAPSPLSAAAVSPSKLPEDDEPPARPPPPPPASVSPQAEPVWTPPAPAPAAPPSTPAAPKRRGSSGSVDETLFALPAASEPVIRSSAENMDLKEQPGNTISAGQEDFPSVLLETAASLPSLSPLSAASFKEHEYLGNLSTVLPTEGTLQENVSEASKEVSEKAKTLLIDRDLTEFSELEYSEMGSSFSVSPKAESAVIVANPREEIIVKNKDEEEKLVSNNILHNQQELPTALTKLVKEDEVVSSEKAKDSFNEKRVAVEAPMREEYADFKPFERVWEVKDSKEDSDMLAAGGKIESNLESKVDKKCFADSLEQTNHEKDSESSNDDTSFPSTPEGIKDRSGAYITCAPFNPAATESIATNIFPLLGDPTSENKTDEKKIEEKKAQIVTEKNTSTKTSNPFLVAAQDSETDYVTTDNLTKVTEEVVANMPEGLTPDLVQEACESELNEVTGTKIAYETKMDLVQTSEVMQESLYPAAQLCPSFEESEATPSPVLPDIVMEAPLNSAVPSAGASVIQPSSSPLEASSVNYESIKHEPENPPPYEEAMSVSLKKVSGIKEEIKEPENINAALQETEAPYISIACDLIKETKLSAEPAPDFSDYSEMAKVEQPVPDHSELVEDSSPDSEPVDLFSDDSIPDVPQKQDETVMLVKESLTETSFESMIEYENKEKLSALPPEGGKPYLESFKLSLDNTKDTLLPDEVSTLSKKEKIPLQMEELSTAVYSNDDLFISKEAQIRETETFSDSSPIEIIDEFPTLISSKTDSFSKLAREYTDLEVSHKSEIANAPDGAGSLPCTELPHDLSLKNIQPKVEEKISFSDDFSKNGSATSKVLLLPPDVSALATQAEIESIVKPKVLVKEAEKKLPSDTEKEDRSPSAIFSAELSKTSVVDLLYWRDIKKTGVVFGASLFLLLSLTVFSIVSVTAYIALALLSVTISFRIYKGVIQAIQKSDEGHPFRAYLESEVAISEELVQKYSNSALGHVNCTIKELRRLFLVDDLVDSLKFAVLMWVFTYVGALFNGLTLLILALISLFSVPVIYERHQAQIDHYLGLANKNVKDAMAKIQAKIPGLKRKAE

Ank2; ANK2 = Ank2; ANK2 (Mus musculus, UniProt Q8C8R3); experiment: anti-AMG510 peptide IP and LC-MS/MS of heart tissue; conditions: covalent at Cys3737; mice dosed orally […] mg/kg/day for […] days
Chain of Ank2; ANK2 (Q8C8R3 whole entry): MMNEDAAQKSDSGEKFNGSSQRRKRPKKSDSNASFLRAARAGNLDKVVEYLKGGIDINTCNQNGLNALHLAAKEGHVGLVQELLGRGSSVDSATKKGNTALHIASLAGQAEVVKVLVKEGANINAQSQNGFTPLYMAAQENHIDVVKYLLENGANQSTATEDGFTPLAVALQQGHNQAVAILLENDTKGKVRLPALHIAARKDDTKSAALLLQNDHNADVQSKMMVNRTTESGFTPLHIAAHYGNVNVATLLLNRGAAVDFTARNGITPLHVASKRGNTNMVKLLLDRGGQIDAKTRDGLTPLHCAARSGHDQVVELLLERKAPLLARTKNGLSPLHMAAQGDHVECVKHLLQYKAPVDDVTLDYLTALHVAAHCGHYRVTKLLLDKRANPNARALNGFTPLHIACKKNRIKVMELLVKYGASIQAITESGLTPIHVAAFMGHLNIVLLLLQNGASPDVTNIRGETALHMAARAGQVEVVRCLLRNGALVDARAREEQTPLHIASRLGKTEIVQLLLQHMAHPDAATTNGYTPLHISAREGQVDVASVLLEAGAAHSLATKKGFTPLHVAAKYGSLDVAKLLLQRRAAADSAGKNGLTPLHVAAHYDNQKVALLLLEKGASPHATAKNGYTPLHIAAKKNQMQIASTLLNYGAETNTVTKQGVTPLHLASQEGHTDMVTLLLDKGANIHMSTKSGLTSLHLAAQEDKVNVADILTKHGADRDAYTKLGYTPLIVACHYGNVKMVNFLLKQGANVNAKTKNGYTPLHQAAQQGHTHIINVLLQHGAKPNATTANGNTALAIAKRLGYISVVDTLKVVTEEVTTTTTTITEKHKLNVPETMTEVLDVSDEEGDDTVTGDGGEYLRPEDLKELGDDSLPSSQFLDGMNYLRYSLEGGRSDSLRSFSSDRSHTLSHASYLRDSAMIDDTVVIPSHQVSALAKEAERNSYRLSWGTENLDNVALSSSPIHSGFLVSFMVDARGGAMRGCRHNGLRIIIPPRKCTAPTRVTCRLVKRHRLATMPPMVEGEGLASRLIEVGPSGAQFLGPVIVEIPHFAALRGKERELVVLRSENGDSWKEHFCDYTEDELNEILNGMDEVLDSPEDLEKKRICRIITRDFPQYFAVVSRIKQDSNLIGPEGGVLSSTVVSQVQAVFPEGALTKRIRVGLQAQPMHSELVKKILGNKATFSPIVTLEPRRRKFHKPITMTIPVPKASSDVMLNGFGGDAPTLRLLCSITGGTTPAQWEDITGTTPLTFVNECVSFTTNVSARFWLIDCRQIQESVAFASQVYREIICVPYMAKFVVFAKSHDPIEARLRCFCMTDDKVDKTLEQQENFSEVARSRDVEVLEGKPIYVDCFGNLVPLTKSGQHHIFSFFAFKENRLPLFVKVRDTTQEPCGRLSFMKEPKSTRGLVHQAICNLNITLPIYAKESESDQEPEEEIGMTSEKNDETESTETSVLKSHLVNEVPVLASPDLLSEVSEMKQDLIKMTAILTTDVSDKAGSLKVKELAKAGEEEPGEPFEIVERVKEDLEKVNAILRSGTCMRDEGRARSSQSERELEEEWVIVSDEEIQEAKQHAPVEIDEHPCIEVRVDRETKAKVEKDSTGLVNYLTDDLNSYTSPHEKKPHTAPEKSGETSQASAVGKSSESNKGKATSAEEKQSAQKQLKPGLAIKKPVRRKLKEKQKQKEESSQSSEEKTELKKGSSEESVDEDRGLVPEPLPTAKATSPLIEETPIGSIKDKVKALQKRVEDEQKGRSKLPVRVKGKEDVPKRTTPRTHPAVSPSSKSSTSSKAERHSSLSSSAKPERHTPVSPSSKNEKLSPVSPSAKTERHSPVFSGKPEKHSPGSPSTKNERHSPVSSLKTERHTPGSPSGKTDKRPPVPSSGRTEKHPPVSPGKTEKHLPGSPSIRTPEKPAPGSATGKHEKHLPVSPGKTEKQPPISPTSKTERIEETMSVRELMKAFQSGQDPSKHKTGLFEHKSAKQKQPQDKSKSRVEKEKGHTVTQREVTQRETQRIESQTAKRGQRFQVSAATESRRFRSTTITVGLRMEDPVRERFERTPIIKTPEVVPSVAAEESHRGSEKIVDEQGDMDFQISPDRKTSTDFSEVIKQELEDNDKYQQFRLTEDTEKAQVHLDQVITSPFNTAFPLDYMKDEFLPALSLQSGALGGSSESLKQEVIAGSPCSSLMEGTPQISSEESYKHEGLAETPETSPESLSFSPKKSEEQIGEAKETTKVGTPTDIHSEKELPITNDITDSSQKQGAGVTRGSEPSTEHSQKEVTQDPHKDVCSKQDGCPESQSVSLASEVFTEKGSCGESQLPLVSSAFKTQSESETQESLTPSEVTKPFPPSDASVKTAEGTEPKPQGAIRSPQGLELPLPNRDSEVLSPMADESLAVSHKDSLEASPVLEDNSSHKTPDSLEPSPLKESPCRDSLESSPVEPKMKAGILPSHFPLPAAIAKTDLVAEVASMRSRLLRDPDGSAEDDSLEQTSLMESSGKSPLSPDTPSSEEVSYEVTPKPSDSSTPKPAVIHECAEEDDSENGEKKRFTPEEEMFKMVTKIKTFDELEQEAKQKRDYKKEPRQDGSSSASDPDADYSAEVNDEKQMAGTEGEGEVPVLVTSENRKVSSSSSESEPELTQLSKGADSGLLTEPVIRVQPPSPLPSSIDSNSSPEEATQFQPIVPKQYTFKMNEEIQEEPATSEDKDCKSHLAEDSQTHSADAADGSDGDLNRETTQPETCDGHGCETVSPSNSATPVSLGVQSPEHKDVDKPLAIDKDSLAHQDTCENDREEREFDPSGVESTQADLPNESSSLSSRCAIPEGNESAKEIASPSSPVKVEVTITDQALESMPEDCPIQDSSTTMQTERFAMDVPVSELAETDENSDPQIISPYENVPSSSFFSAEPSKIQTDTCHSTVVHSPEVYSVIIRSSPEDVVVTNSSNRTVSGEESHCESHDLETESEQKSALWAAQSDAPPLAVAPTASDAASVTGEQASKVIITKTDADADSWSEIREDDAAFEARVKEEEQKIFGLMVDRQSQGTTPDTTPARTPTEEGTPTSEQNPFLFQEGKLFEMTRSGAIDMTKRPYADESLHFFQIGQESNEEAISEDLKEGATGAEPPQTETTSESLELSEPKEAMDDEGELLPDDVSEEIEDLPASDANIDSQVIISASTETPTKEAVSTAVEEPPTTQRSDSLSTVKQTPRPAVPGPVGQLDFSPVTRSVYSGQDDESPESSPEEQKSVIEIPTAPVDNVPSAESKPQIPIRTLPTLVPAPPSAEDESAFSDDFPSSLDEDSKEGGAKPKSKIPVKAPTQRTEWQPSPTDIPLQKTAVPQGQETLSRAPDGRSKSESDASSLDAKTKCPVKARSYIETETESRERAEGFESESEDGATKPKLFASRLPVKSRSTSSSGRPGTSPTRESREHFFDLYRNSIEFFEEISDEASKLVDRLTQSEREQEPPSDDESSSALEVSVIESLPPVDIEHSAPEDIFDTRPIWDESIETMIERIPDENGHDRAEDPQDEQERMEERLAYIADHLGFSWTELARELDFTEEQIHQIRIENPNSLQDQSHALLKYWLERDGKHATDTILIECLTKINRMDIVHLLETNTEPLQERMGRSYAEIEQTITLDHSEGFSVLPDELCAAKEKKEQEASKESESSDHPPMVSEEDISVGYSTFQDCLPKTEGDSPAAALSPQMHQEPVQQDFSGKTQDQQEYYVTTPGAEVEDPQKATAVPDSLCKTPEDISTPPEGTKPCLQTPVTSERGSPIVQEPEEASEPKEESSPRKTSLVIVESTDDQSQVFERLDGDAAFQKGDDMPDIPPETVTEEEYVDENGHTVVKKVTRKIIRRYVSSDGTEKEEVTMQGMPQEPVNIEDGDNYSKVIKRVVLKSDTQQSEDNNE

C=CC(=O)N1CCN(c2nc(=O)n(-c3c(C)ccnc3C(C)C)c3nc(-c4c(O)cccc4F)c(F)cc23)[C@@H](C)C1 [AMG510]
aldolase activity (ALDOA): The ALDOA enzyme activity assay showed that the activity was indeed inhibited by the AMG510 | direct LC-MS/MS profiling of modified tryptic peptides (SPTLC2): They included enzymes (PLOD3 C691, RPE C5, SPTLC2 C99, UBE2O C370, and TK1 C3) | direct LC-MS/MS profiling of modified tryptic peptides (TK1): They included enzymes (PLOD3 C691, RPE C5, SPTLC2 C99, UBE2O C370, and TK1 C3) | direct LC-MS/MS profiling of modified tryptic peptides (RTN4): off-targets that were identified in previous studies (RTN4 C1101 and HMOX2 C282) | anti-AMG510 peptide IP and LC-MS/MS of heart tissue (Ank2; ANK2): Ank2 was modified by AMG510 at Cys3737 in the mouse heart tissue
